# Measurements as given in ChEMBL document CHEMBL3745662, “Preliminary investigation of 6,7-dihydropyrazolo[1,5-a]pyrazin-4-one derivatives as a novel series of mGlu5 receptor positive allosteric modulators with efficacy in preclinical models of schizophrenia” (Bioorg Med Chem Lett, 2016).
# Calls of active or inactive are those of the source. No cut-off for these calls is given here.
# Legend:
# [1] = target: T1, Metabotropic glutamate receptor 5 (Homo sapiens, UniProt P41594); assay: Positive allosteric modulation of human mGlu5 expressed in HEK293 cells assessed as glutamate-induced calcium mobilization; format: functional, cell-based
# Target sequence in this assay (P41594 whole entry): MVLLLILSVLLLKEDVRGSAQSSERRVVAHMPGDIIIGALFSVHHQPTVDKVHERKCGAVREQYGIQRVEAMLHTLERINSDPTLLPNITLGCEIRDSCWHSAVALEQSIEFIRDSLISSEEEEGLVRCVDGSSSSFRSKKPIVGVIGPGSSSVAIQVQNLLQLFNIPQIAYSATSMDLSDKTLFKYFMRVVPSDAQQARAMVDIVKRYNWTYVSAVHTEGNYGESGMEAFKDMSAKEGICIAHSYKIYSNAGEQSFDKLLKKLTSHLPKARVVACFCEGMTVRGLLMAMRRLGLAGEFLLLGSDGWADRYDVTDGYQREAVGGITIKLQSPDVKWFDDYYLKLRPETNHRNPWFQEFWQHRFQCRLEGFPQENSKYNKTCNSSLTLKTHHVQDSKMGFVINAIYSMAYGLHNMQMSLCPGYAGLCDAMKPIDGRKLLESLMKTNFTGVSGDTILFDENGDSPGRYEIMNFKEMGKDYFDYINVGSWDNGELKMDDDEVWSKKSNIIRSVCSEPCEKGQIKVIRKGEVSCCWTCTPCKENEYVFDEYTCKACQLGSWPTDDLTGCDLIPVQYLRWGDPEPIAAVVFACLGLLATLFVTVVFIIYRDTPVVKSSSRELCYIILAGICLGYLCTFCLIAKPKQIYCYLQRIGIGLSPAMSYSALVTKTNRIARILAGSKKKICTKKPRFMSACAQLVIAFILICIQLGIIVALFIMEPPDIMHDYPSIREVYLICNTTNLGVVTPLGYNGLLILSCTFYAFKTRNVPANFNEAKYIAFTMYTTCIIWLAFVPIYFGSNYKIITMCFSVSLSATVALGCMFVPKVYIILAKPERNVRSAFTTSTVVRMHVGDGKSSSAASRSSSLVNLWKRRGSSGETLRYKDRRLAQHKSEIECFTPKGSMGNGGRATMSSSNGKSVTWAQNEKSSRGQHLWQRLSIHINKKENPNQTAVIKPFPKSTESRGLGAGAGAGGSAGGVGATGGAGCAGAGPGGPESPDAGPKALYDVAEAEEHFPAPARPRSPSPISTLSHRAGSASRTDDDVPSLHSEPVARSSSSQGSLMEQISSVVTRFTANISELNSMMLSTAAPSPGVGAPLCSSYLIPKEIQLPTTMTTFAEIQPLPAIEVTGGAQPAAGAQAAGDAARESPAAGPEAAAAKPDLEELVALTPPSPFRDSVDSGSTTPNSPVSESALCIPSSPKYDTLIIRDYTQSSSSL
# [2] = target: T1, Metabotropic glutamate receptor 5; assay: Positive allosteric modulation of human mGlu5 expressed in HEK293 cells assessed as glutamate-induced calcium mobilization relative to glutamate; format: functional, cell-based
# Target sequence in this assay (P41594 21-1212 limits assumed): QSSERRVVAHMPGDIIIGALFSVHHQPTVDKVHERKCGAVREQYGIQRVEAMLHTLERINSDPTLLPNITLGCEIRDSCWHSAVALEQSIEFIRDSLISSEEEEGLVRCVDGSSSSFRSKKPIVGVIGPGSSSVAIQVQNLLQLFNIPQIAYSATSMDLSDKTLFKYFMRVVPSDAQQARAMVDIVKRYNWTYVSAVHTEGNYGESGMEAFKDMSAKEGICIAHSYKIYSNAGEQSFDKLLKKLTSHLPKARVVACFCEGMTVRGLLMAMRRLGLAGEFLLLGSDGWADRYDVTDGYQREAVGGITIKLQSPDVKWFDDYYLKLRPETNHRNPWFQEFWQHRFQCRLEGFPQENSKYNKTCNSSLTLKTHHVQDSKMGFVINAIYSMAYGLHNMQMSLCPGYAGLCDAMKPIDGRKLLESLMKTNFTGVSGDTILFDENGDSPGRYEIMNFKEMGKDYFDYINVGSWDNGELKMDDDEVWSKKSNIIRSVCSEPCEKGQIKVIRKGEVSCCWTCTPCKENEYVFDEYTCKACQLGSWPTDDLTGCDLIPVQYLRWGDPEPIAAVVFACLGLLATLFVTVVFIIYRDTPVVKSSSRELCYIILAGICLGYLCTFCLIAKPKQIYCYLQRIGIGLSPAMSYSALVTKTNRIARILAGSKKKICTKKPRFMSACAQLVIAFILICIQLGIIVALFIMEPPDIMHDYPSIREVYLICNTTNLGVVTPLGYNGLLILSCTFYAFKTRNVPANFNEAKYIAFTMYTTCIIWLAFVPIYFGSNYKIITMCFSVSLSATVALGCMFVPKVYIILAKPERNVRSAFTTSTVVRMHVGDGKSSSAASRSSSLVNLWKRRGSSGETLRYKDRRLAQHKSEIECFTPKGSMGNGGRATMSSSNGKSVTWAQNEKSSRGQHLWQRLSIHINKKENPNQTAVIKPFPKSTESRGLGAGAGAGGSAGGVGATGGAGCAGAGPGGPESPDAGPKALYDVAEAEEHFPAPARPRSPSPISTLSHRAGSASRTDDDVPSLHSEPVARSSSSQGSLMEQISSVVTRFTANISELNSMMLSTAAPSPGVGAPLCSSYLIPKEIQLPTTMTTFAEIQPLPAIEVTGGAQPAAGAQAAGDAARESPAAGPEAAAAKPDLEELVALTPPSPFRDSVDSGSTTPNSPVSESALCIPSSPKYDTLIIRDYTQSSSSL
# [3] = target: Metabotropic glutamate receptor 3 (Homo sapiens, UniProt Q14832); assay: Antagonist activity at human mGlu3 expressed in HEK293 cells assessed as inhibition of glutamate-induced calcium mobilization; format: functional, cell-based
# Sequence of Metabotropic glutamate receptor 3 (Q14832 whole entry): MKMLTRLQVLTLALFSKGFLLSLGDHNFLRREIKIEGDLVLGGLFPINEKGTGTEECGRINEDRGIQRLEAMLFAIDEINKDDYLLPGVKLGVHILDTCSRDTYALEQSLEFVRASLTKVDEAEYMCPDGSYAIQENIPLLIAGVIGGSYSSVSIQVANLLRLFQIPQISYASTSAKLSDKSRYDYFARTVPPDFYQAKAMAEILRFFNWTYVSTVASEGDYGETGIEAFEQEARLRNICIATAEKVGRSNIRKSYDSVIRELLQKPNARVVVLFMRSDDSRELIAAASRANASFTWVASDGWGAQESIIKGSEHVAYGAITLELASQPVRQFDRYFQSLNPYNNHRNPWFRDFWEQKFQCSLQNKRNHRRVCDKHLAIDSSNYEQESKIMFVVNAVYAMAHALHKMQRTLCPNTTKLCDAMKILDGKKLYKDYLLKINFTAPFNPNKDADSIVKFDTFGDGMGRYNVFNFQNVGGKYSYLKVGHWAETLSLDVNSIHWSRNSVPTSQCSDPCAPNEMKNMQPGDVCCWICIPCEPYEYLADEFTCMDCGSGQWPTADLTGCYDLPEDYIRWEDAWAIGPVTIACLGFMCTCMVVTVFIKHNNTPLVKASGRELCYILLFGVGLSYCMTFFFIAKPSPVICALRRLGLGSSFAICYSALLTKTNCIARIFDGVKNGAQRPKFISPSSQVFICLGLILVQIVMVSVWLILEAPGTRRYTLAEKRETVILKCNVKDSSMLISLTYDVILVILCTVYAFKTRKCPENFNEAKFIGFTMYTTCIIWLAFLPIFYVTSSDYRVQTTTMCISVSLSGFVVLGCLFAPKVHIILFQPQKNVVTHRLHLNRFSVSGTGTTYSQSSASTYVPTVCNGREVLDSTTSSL
# Rattus norvegicus [4] = assay: Antipsychotic-like activity in dosed Sprague-Dawley rat assessed as full reversal of amphetamine-induced hyperlocomotion at 100 mg/kg, po; format: functional, organism-based
# [5] = Cmax in rat at 10 mg/kg, po; format: ADME, organism-based; parameters: dose 10 mg/kg, route oral; details: in vivo
# Rattus norvegicus [6] = assay: Antipsychotic-like activity in po dosed Sprague-Dawley rat assessed as reversal of amphetamine-induced hyperlocomotion; format: functional
# Cytochrome P450 2D6 = Cytochrome P450 2D6 (Homo sapiens, UniProt P10635); assay: Inhibition of CYP2D6 (unknown origin); format: ADME
# [7] = AUC (0 to infinity) in dog at 5 mg/kg, po; format: ADME, organism-based, Canis lupus familiaris; parameters: dose 5 mg/kg, time infinity, route oral; details: in vivo
# [8] = target: Metabotropic glutamate receptor 2 (Homo sapiens, UniProt Q14416); assay: Positive allosteric modulation of human mGlu2 receptor expressed in HEK293 cells assessed as calcium mobilization by fluorescence analysis; format: functional, cell-based
# [9] = target: Voltage-gated inwardly rectifying potassium channel KCNH2 (Homo sapiens, UniProt Q12809); assay: Inhibition of human ERG
# Rattus norvegicus [10] = assay: Procognitive activity in po dosed Sprague-Dawley rat assessed as enhancement of contexual fear conditioning acquistion treated for 30 mins prior to conditioning measured after 24 hrs; format: functional
# [11] = Volume of distribution at steady state in dog at 0.5 mg/kg, iv; format: ADME, organism-based, Canis lupus familiaris; details: in vivo, read-out: Vdss
# [12] = target: T2, Metabotropic glutamate receptor 4 (Homo sapiens, UniProt Q14833); assay: Positive allosteric modulation of human mGlu4 receptor expressed in HEK293 cells by [35S]-GTPgammaS binding assay; format: functional, cell-based
# T2 sequence (Q14833 whole entry): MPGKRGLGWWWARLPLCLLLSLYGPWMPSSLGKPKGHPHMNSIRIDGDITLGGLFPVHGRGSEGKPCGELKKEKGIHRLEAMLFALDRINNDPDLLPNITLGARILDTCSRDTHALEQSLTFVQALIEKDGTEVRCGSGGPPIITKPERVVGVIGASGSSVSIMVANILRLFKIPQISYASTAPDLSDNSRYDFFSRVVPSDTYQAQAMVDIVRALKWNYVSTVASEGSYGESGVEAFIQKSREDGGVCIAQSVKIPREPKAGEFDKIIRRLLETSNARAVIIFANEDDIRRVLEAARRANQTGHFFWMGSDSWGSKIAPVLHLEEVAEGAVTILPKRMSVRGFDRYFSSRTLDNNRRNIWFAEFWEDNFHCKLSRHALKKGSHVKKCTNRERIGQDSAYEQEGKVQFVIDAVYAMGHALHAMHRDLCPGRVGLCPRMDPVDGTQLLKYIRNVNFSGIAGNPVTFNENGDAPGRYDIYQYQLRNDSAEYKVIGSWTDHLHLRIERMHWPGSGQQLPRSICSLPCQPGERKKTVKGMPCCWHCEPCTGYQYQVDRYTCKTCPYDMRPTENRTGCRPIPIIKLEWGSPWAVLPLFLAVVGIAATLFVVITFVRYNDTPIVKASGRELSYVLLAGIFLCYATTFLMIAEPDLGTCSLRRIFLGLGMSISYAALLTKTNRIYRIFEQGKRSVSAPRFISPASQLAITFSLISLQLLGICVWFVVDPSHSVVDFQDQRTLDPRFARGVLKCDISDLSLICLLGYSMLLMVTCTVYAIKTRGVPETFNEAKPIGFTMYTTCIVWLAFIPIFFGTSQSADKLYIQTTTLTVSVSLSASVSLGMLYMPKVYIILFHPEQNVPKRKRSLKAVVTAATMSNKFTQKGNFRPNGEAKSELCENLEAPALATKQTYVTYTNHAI
# [13] = target: Metabotropic glutamate receptor 6 (Rattus norvegicus, UniProt P35349); assay: Positive allosteric modulation of rat mGlu6 receptor expressed in CHO cells by [35S]-GTPgammaS binding assay; format: functional, cell-based
# [14] = Plasma protein binding in rat assessed as percentage unbound; format: ADME, cell-free
# Rattus norvegicus [15] = assay: Toxicity in Sprague-Dawley rat assessed as tremors at 25 to 600 mg/kg, po; format: organism-based; details: in vivo
# [16] = Inhibition of Calcium channel (unknown origin); parameters: species or system Homo sapiens
# [17] = Inhibition of Sodium channel (unknown origin); parameters: species or system Homo sapiens
# [18] = AUC (0 to infinity) in rat at 10 mg/kg, po; format: ADME, organism-based; parameters: dose 10 mg/kg, route oral, time infinity; details: in vivo
# Rattus norvegicus [19] = assay: Toxicity in Sprague-Dawley rat assessed as pedaling movements of forepaws at 25 to 600 mg/kg, po; format: organism-based; details: in vivo
# [20] = target: T2, Metabotropic glutamate receptor 4; assay: Positive allosteric modulation of human mGlu4 receptor expressed in L929sA cells assessed as calcium mobilization by fluorescence analysis; format: functional, cell-based
# in vivo [21] = details: rat, po, 10 mg/kg
# Description: Tmax in rat at 10 mg/kg, po
# [22] = Oral bioavailability in rat at 10 mg/kg; format: ADME, organism-based; details: in vivo
# [23] = Half life in rat at 2.5 mg/kg, iv; format: ADME, organism-based; details: in vivo
# [24] = Oral bioavailability in dog at 5 mg/kg; format: ADME, organism-based, Canis lupus familiaris; details: in vivo
# [25] = target: Metabotropic glutamate receptor 8 (Homo sapiens, UniProt O00222); assay: Positive allosteric modulation of human mGlu8 receptor expressed in HEK293 cells assessed as calcium mobilization by fluorescence analysis; format: functional, cell-based
# [26] = target: T2, Metabotropic glutamate receptor 4; assay: Positive allosteric modulation of human mGlu4 receptor expressed in HEK293 cells assessed as calcium mobilization by fluorescence analysis; format: functional, cell-based
# in vivo [27] = details: dog, po, 5 mg/kg
# [28] = Percentage unbound in rat brain; format: ADME, tissue-based; details: brain tissue
# [29] = Half life in dog at 0.5 mg/kg, iv; format: ADME, organism-based, Canis lupus familiaris; details: in vivo
# [30] = target: T2, Metabotropic glutamate receptor 4; assay: Positive allosteric modulation of human mGlu4 receptor expressed in L929sA cells by [35S]-GTPgammaS binding assay; format: functional, cell-based
# [31] = target: Metabotropic glutamate receptor 1 (Homo sapiens, UniProt Q13255); assay: Positive allosteric modulation of human mGlu1 receptor expressed in HEK293 cells assessed as calcium mobilization by fluorescence analysis; format: functional, cell-based
# [32] = target: Metabotropic glutamate receptor 7 (Homo sapiens, UniProt Q14831); assay: Positive allosteric modulation of human mGlu7 receptor expressed in HEK293 cells assessed as calcium mobilization by fluorescence analysis; format: functional, cell-based
# Rattus norvegicus [33] = assay: Toxicity in Sprague-Dawley rat assessed as mortality at 600 mg/kg, po; format: organism-based; details: in vivo
# [34] = Volume of distribution at steady state in rat at 2.5 mg/kg, iv; format: ADME, organism-based; details: in vivo, read-out: Vdss
# Cytochrome P450 1A2 = target: T3, Cytochrome P450 1A2 (Homo sapiens, UniProt P05177); assay: Inhibition of CYP1A2 (unknown origin); format: ADME
# T3 sequence (P05177 whole entry): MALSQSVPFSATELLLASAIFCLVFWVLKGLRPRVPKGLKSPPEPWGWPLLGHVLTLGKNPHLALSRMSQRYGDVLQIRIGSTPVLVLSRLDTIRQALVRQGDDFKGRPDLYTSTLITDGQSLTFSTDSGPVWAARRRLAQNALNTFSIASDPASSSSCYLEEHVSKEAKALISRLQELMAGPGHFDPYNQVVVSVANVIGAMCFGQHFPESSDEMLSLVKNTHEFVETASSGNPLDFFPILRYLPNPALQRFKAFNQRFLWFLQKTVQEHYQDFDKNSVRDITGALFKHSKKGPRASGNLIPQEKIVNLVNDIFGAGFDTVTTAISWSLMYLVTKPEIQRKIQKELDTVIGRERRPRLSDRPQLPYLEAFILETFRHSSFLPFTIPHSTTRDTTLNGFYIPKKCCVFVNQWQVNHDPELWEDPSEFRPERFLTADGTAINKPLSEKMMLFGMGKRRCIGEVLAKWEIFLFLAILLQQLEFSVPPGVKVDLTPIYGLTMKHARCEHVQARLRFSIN
# [35] = Plasma protein binding in human assessed as percentage unbound; format: ADME, cell-free
# [36] = Plasma clearance in dog at 0.5 mg/kg, iv; format: ADME, organism-based, Canis lupus familiaris
# [37] = Cmax in dog at 5 mg/kg, po; format: ADME, organism-based, Canis lupus familiaris; parameters: dose 5 mg/kg, route oral; details: in vivo
# Rattus norvegicus [38] = assay: Toxicity in Sprague-Dawley rat assessed as complusive behavior at 25 to 600 mg/kg, po; format: organism-based; details: in vivo
# Cytochrome P450 2C9 = Cytochrome P450 2C9 (Homo sapiens, UniProt P11712); assay: Inhibition of CYP2C9 (unknown origin); format: ADME
# Sequence of Cytochrome P450 2C9 (P11712 whole entry): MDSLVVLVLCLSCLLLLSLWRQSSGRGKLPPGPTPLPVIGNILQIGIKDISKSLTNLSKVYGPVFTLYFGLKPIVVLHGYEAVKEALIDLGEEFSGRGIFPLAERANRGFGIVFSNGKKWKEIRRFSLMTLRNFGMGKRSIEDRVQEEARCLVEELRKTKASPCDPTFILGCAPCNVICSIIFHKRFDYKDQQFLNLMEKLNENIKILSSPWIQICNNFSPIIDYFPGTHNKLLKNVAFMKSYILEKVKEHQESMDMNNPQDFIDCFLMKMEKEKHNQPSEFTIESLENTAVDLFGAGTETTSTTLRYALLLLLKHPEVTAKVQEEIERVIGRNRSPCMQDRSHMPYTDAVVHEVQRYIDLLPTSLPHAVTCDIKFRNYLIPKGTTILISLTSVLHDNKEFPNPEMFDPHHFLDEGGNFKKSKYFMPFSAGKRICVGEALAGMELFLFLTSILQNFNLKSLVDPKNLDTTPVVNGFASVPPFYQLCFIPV
# [39] = Solubility of compound in fed state simulated intestinal fluid; format: ADME; details: simulated gi fluid
# [40] = Plasma clearance in rat at 2.5 mg/kg, iv; format: ADME, organism-based
# [41] = target: Platelet-activating factor receptor (Homo sapiens) (UniProt P25105); assay: Inhibition of human PAF at 10 uM
# Sequence of Platelet-activating factor receptor (Homo sapiens) (P25105 whole entry): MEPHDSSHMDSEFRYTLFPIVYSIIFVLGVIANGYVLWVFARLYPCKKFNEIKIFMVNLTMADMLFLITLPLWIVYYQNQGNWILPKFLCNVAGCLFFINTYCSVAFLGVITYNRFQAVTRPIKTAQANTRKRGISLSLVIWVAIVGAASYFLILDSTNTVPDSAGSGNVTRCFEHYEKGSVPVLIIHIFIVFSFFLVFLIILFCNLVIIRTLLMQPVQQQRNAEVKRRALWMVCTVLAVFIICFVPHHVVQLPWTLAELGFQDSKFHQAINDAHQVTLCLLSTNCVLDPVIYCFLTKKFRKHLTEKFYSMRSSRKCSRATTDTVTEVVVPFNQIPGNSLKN
# Cytochrome P450 3A4 = Cytochrome P450 3A4 (Homo sapiens, UniProt P08684); assay: Inhibition of CYP3A4 (unknown origin); format: ADME
compound,measurement,setting,value
O=C1c2cc(COc3ccc(F)cc3)nn2CCN1c1ccc(F)cc1,EC50,[1]; read-out: EC50,100 nM
same,Emax,[2],72%
same,EC50,[3],34 nM
O=C1c2cc(COc3ccccc3)nn2CCN1c1ccc(F)cn1,Activity,Rattus norvegicus [4],Active
same,Cmax,[5],730 ng/mL
same,Activity,Rattus norvegicus [6],Dose-dependent effect
same,IC50,Cytochrome P450 2D6,≥ 30000 nM
same,AUC(0-inf),[7],1540 ng·h/mL
same,EC50,[8],> 10000 nM
same,IC50,[9],> 10000 nM
same,Activity,Rattus norvegicus [10],Dose-dependent effect
same,minimal effective dose,Rattus norvegicus [10]; read-out: MED,0.3 mg/kg
same,Vd,[11],2.6 L/kg
same,EC50,[12],> 10000 nM
same,EC50,[13],> 10000 nM
same,Fu,[14],6.8%
same,Activity,Rattus norvegicus [15],Toxic
same,IC50,[16],> 10000 nM
same,IC50,[17],> 10000 nM
same,AUC(0-inf),[18],6670 ng·h/mL
same,Activity,Rattus norvegicus [19],Toxic
same,EC50,[1]; read-out: EC50,130 nM
same,Emax,[2],72%
same,EC50,[20],> 10000 nM
same,Tmax,in vivo [21],4 h
same,bioavailability,[22],88%
same,half-life,[23],1.6 h
same,bioavailability,[24],48%
same,EC50,[25],> 10000 nM
same,EC50,[26],> 10000 nM
same,Tmax,in vivo [27],0.7 h
same,fraction unbound,[28],0.055
same,half-life,[29],2.4 h
same,EC50,[30],> 10000 nM
same,EC50,[31],> 10000 nM
same,EC50,[32],> 10000 nM
same,Activity,Rattus norvegicus [33],Toxic
same,Vd,[34],1.6 L/kg
same,IC50,Cytochrome P450 1A2,≥ 30000 nM
same,Fu,[35],8.2%
same,clearance,[36],25 mL/min/kg
same,EC50,[3],6760 nM
same,Cmax,[37],519 ng/mL
same,Activity,Rattus norvegicus [38],Toxic
same,IC50,Cytochrome P450 2C9,≥ 30000 nM
same,solubility,[39],13 µg/mL
same,clearance,[40],19 mL/min/kg
same,inhibition,[41],57%
same,IC50,Cytochrome P450 3A4,≥ 30000 nM
O=C1c2cc(COc3ccccc3F)nn2CCN1c1ccc(F)cc1,EC50,[1]; read-out: EC50,150 nM
same,Emax,[2],66%
COc1ccc(N2CCn3nc(COc4ccccc4)cc3C2=O)cc1,EC50,[1]; read-out: EC50,110 nM
same,Emax,[2],58%
O=C1c2cc(COc3ccccc3)nn2CCN1c1ccncc1,EC50,[1]; read-out: EC50,2090 nM
same,Emax,[2],72%
CC(Oc1ccccc1)c1cc2n(n1)CCN(c1ccc(F)cc1)C2=O (configuration not stated),EC50,[1]; read-out: EC50,7760 nM
same,Emax,[2],65%
Cc1c(COc2ccccc2)nn2c1C(=O)N(c1ccc(F)cc1)CC2,EC50,[1]; read-out: EC50,1230 nM
same,Emax,[2],32%
O=C1c2cc(COc3ccccc3)nn2CCN1c1ccccn1,EC50,[1]; read-out: EC50,760 nM
same,Emax,[2],69%
O=C1c2cc(COc3ccccc3)nn2CCCN1c1ccc(F)cc1,EC50,[1]; read-out: EC50,220 nM
same,EC50,[1]; read-out: pEC50 (converted),87.1 nM
same,Emax,[2],79%
same,EC50,[3],540 nM
O=C1c2cc(COc3ccccc3)nn2CCN1c1ccc(F)c(F)c1,EC50,[1]; read-out: EC50,87 nM
same,Emax,[2],81%
O=C1c2cc(COc3cccc(F)c3)nn2CCN1c1ccc(F)cc1,EC50,[1]; read-out: EC50,100 nM
same,Emax,[2],70%
Cc1ccc(OCc2cc3n(n2)CCN(c2ccc(F)cc2)C3=O)cc1,EC50,[1]; read-out: EC50,300 nM
same,Emax,[2],58%
O=C1c2cc(COc3ccccc3)nn2CCN1c1cccnc1,EC50,[1]; read-out: EC50,2090 nM
same,Emax,[2],64%
O=C1c2cc(COc3ccccc3)nn2CCN1c1cccc(F)c1,EC50,[1]; read-out: EC50,130 nM
same,Emax,[2],81%
O=C1c2cc(COc3cccnc3)nn2CCN1c1ccc(F)cc1,EC50,[1]; read-out: EC50,3980 nM
same,Emax,[2],69%
